Here are results for 14 compounds from US12275721B2, “Indazole carboxamides as kinase inhibitors” (BRISTOL-MYERS SQUIBB COMPANY, priority 2019, dated 2025).

For experiment [1], the system named is MLKL phosphorylation in HT29-L23 human colorectal adenocarcinoma cells. The experiment is described as follows: MLKL Phosphorylation High-Content Assay. Format: cell-based. Particulars: Homo sapiens, necroptosis induced with TNFα, SMAC mimetic and Z-VAD, 6 h, read-out: pMLKL (IC50). The protocol: MLKL Phosphorylation High-Content Assay
HT29-L23 human colorectal adenocarcinoma cells were maintained in RPMI 1640 medium containing 10% heat-inactivated FBS, 1% Penicillin-Streptomycin and 10 mM HEPES. Cells were seeded at 2,000 cells/well in 384 well tissue culture-treated microplates (Greiner #781090-3B) and incubated at 37° C. (5% CO2/95% O2) for 2 d. On the day of the assay, the cells were treated with test compounds at final concentrations of 6.25 to 0.106 μM for 30 min at 37° C. (5% CO2/95% O2). Necroptopsis was induced using a mixture of human TNFα (35 ng/mL) (Peprotech #300-01A), SMAC mimetic (from US 2015/0322111 A1) (700 nM) and Z-VAD (140 nM) (BD pharmingen #51-6936). Following 6 h incubation at 37° C. (5% CO2/95% O2), the cells were fixed with 4% formaldehyde (ACROS 11969-0010) for 15 min at rt, then permeabilized with phosphate buffered saline (PBS) containing 0.2% Triton-X-100 for 10 min. MLKL phosphorylation was detected using anti-MLKL (phospho S358) antibody (Abcam #ab187091) (1:1000 dilution in Blocking Buffer [PBS supplemented with 0.1% BSA]) with ON incubation at 4° C. After washing three times in PBS, goat anti-rabbit Alexa-488 (1:1000 dilution) (Life Technologies, A1 1008) and Hoechst 33342 (Life Technologies, H3570) (1:2000 dilution) in Blocking Buffer were added for 1 h at rt. Following another three cycles of washes in PBS, the microplates were sealed, and cellular images were acquired in the Cellomics ArrayScan VTI high-content imager equipped with an X1 camera. Fluorescent images were taken using a 10× objective and the 386-23 BGRFRN_BGRFRN and 485-20 BGRFRN_BGRFRN filter sets, for nuclei and MLKL phosphorylation, respectively. The image sets were analyzed using the Compartmental Analysis Bioapplication software (Cellomics). The level of MLKL phosphorylation was quantified as MEAN_CircRingAvglntenRatio. The maximal inhibitory response was defined by the activity induced by Necls (CAS #: 852391-15-2, 6.25 μm). The IC50 value was defined as the concentration of compound that produces 50% of the maximal inhibition. The data were fitted using the 4-parameter logistic equation to calculate the IC50 and Ymax values.

Experiment [2] addresses T1, His-GST-TVMV-hRIPK1(1-324) (Homo sapiens, UniProt Q13546).
T1 construct: 1 nM His-GST-TVMV-hRIPK1(1-324) in FRET Buffer; made in house; host or cells: Spodoptera frugiperda (Sf9) insect cells, baculovirus (Bac-to-Bac)
T1 sequence (Q13546 1-324): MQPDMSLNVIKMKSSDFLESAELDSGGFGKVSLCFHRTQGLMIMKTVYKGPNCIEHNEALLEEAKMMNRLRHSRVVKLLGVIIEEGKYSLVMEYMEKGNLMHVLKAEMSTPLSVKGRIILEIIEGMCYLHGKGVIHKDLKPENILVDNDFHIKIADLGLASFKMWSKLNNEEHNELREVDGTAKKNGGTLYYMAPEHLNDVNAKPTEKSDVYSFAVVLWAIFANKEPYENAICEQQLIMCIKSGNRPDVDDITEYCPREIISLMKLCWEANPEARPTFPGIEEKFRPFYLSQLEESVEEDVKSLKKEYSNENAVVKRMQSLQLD
The experiment can be described thus: RIPK1 HTRF Binding Assay. Particulars: HTRF probe displacement, 1 h at rt. How it is done: A solution was prepared containing 0.2 nM Anti GST-Tb (Cisbio, 61GSTTLB), 90.6 nM probe and 1 nM His-GST-TVMV-hRIPK1(1-324) in FRET Buffer (20 mM HEPES, 10 mM MgCl2, 0.015% Brij-35, 4 mM DTT, 0.05 mg/mL BSA). Using Formulatrix Tempest, the detection antibody/enzyme/probe solution ([…]) was dispensed into wells of a 1536 plate (Black Low Binding Polystyrene 1536 Plate (Corning, 3724)) containing 10 nL of compounds of interest at appropriate concentration in DMSO. The plate was incubated at rt for 1 h. FRET was measured using the EnVision plate reader (Excitation: 340 nm, Emission: 520 nm/[…]). Total signal (0% inhibition) was calculated from wells containing 10 nL DMSO only.
Cloning and Baculovirus Expression of RIPK1 Construct
The coding region of human RIPK1(1-324) flanked by NdeI site at 5′ end and stop codon TGA and XhoI site at 3′ end was codon optimized and gene synthesized at GenScript USA Inc. (Piscataway, NJ) and subcloned into a modified pFastBac1 vector (Invitrogen, Carlsbad, CA) with N-terminal His-GST-TVMV tag, to generate His-GST TVMV-hRIPK1(1-324)-pFB. The fidelity of the synthetic fragment was confirmed by sequencing. Baculovirus was generated for the construct using the Bac-to-Bac baculovirus expression system (Invitrogen) according to the manufacturer's protocol. Briefly, recombinant bacmid was isolated from transformed DH10Bac E. coli competent cells 20 (Invitrogen) and used to transfect Spodoptera frugiperda (Sf9) insect cells (Invitrogen). Baculovirus was harvested 72 hours post transfection and a virus stock was prepared by infecting fresh Sf9 cells at a 1/1000 (v/v) ratio for 66 hours. For large scale protein production, Sf9 cells (Expression System, Davis, CA) grown in ESF921 insect medium (Expression System) at 2×10^6 cells/ml were infected with virus stock at a 1/100 (v/v) ratio for 66 hours. The production was carried out either at a 10 L scale in a 22 L cellbag (GE Healthcare Bioscience, Pittsburgh, PA) or at a 20 L scale in a 50 L cellbag using WAVE-Bioreactor System 20/50 (GE Healthcare Bioscience). The infected cells were harvested by centrifugation at 2000 rpm for 20 min at 4° C. in a SORVALL® RC12BP centrifuge. The cell pellets was stored at −70° C. before protein was purified.
Purification of His-GST-TVMV-hRIPK1(1-324)
RIPK1 containing cell paste was resuspended in 50 mM Tris pH 7.5, 150 mM NaCl, 10 mM imidazole, 5% glycerol, 5 mM MgSO4, 1 mM TCEP, 25 U/ml Benzonase, and Complete Protease Inhibitor tablets (1/50 ml, Roche Diagnostics, Indianapolis, IN). The cells were lysed by nitrogen cavitation using an unstirred pressure vessel @ 525 PSI (Parr Instrument Company, Moline, IL). The suspension was clarified by centrifugation at 136,000×g for 40 min, at 4° C. The lysate was decanted from the pellet and passed through a 5 ml NiNTA Superflow cartridge (Qiagen, Valencia, CA) using an AKTA Pure (GE Healthcare). Column was eluted with 10 CV linear gradient into 50 mM Tris 7.5, 150 mM NaCl, 500 mM imidazole, 5% glycerol, 1 mM TCEP. Peak fractions were pooled and loaded directly onto 5 ml GSTrap 4B column (GE Healthcare). Column was washed with 50 mM Tris 7.0, 150 mM NaCl, […], 1 mM DTT and eluted in 10 CV linear gradient into 50 mM Tris 8.0, 150 mM NaCl, 20 mM reduced glutathione, 50% glycerol, 1 mM DTT. Fractions identified by SDS-PAGE as containing RIPK1 were pooled and concentrated using 30 kDa MWCO spin concentrators (Amicon Ultra-15, Millipore, Billerica, MA) and loaded onto a HiLoad 26/600 Superdex 200 column (GE Healthcare) equilibrated in 25 mM Tris 7.5, 150 mM NaCl, 2 mM TCEP, […]. The RTPK1 protein eluted as a dimer off the SEC column. The yield was ˜8 mg/L with a purity […] as determined by Coomassie stain SDS-PAGE gel analysis. […] Protein was aliquoted and stored at −80° C. Using these assays, the IC50 values of the following compounds were determined.
For orientation: Time-resolved FRET reads energy transfer from a long-lived donor to a nearby acceptor.

Turning to `CNC(=O)c1n[nH]c2cc(-c3cc(C(=O)NC(C)CCc4ccccc4)n(C)n3)ccc12` (racemic) [Example 36, N-methyl-6-(1-methyl-5-((4-phenylbutan-2-yl)carbamoyl)-1H-pyrazol-3-yl)-1H-indazole-3-carboxamide], the half-maximal inhibitory concentration (IC50) (in general, the concentration that gives 50% inhibition) in experiment [1] stood at 600 nM.
`CNC(=O)c1n[nH]c2cc(-c3csc(C(=O)NCc4cc(OC(F)(F)F)ccc4F)c3)ccc12` [Example 1, 6-(5-((2-fluoro-5-(trifluoromethoxy)benzyl)carbamoyl)thiophen-3-yl)-N-methyl-1H-indazole-3-carboxamide]: the IC50 turned out to be 21 nM in experiment [1] and 6.8 nM in experiment [2].
For `CNC(=O)c1n[nH]c2cc(-c3csc(C(=O)NCCC(C)c4ccccc4)c3)ccc12` (centres unmarked) [Example 2, N-methyl-6-(5-((3-phenylbutyl)carbamoyl)thiophen-3-yl)-1H-indazole-3-carboxamide], in that order: 8.2 nM and 6 nM.
For `CNC(=O)c1n[nH]c2cc(-c3csc(C(=O)NCC[C@@H](O)c4ccc(Cl)cc4)c3)ccc12` [Example 3, (R)-6-(5-((3-(4-chlorophenyl)-3-hydroxypropyl)carbamoyl)thiophen-3-yl)-N-methyl-1H-indazole-3-carboxamide], the IC50 in experiment [1] is 200 nM; in experiment [2], 47 nM.
In the case of `CNC(=O)c1n[nH]c2cc(-c3csc(C(=O)NCC[C@H](O)c4ccc(Cl)cc4)c3)ccc12` [Example 4, (S)-6-(5-((3-(4-chlorophenyl)-3-hydroxypropyl)carbamoyl)thiophen-3-yl)-N-methyl-1H-indazole-3-carboxamide], the IC50 in experiment [1] came out at 230 nM; in experiment [2], 43 nM.
The corresponding values for `CC(C)NC(=O)c1n[nH]c2cc(-c3csc(C(=O)NCC[C@@H](O)c4ccc(Cl)cc4)c3)ccc12` [Example 5, (R)-6-(5-((3-(4-chlorophenyl)-3-hydroxypropyl)carbamoyl)thiophen-3-yl)-N-isopropyl-1H-indazole-3-carboxamide] are 1100 nM and 800 nM.
The corresponding values for `CNC(=O)c1n[nH]c2cc(-c3ccc(C(=O)NCc4cc(OC(F)(F)F)ccc4F)s3)ccc12` [Example 6, 6-(5-((2-fluoro-5-(trifluoromethoxy)benzyl)carbamoyl)thiophen-2-yl)-N-methyl-1H-indazole-3-carboxamide] are 56 nM and 31 nM.
Consider `CNC(=O)c1n[nH]c2cc(-c3ccc(C(=O)NCCC(C)c4ccccc4)s3)ccc12` (centres unmarked) [Example 7, N-methyl-6-(5-((3-phenylbutyl)carbamoyl)thiophen-2-yl)-1H-indazole-3-carboxamide], for which the IC50 in experiment [1] came out at 3.9 nM; in experiment [2], 17 nM.
For `CNC(=O)c1n[nH]c2cc(-c3ccc(C(=O)NCC[C@H](O)c4ccc(Cl)cc4)s3)ccc12` [Example 8, (S)-6-(5-((3-(4-chlorophenyl)-3-hydroxypropyl)carbamoyl)thiophen-2-yl)-N-methyl-1H-indazole-3-carboxamide], in that order: 6300 nM and 220 nM.
As to `CC(C)NC(=O)c1n[nH]c2cc(-c3ccc(C(=O)NCC[C@H](O)c4ccc(Cl)cc4)s3)ccc12` [Example 9, (S)-6-(5-((3-(4-chlorophenyl)-3-hydroxypropyl)carbamoyl)thiophen-2-yl)-N-isopropyl-1H-indazole-3-carboxamide], in experiment [1], the half-inhibitory concentration (IC50) was determined as 500 nM.
In the case of `CNC(=O)c1n[nH]c2cc(-c3cc(C)c(C(=O)NCc4cc(OC(F)(F)F)ccc4F)s3)ccc12` [Example 10, 6-(5-((2-fluoro-5-(trifluoromethoxy)benzyl)carbamoyl)-4-methylthiophen-2-yl)-N-methyl-1H-indazole-3-carboxamide], the concentration for half-maximal inhibition (IC50) in experiment [1] was 1 nM; in experiment [2], 2 nM.
The corresponding values for `CNC(=O)c1n[nH]c2cc(-c3cc(C)c(C(=O)NCCC(C)c4ccccc4)s3)ccc12` (centres unmarked) [Example 11, N-methyl-6-(4-methyl-5-((3-phenylbutyl)carbamoyl)thiophen-2-yl)-1H-indazole-3-carboxamide] are 2 nM and 1.8 nM.
For `CNC(=O)c1n[nH]c2cc(-c3cc(C)c(C(=O)NCC[C@@H](O)c4ccc(Cl)cc4)s3)ccc12` [Example 12, (R)-6-(5-((3-(4-chlorophenyl)-3-hydroxypropyl)carbamoyl)-4-methylthiophen-2-yl)-N-methyl-1H-indazole-3-carboxamide], in that order: 11 nM and 3.8 nM.
The corresponding values for `CNC(=O)c1n[nH]c2cc(-c3nc(C)c(C(=O)NCc4cc(OC(F)(F)F)ccc4F)s3)ccc12` [Example 14, N-(2-fluoro-5-(trifluoromethoxy)benzyl)-4-methyl-2-(3-(methylcarbamoyl)-1H-indazol-6-yl)thiazole-5-carboxamide] are 8 nM and 7 nM.
